Source: patent EP0678516B1, “Preparation of 2-bromo-5-(2-bromo-2-nitrovinyl)-furan and its use as microcide” (CENTRO DE BIOACTIVOS QUIMICOS DE LA UNIVERSIDAD CENTRAL DE …, priority 1994, dated 1995)
≈ marks a conversion by molar mass, not a printed value.

How the values were obtained:
Percutaneous LD50 = assay type: in vivo, mice OF1; conditions: interscapular region, 0.2 ml/10 g of body mass
Source text: Moreover, the anatomopathological elements and the clinical events were characterized during the experiments.

[1] = system: Vibrio cholerae ser. Inabu; test: In vitro MIC (serial dilution); assay type: cell-based
Description: (§1) The antimicrobial sensitivity was first evaluated "in vitro" using the serial dilution method for bacteria and fungi. Other growth methods in agar cultures were included for other species. The liquid and solid mediums used were Mueller-Hinton, Tryptona Soya, Sabouraud Dextrosa, Sabouraud Maltose and other mediums in accordance with the cultural demands of the micro-organisms valued.
(§2) The temperature and incubation period was adjusted to conditions and characteristics of the micro-organisms used.
(§3) The Minimal Inhibitory Concentration (MIC) was calculated in terms of MIC50 and MIC90 in µg/ml.

Streptococcus agalactiae = test: In vitro MIC (serial dilution); assay type: cell-based
Description: as §1, §2, §3

Proteus rettgeri = test: In vitro MIC (serial dilution); assay type: cell-based; conditions: Providencia rettgeri
Description: as §1, §2, §3

Microsporum gypseum = test: In vitro MIC (serial dilution); assay type: cell-based; conditions: Nannizzia gypsea
Description: as §1, §2, §3

[2] = system: Trichophyton mentagrophytes; test: In vitro MIC (serial dilution); assay type: cell-based
Description: as §1, §2, §3

Sarcina lutea = test: In vitro MIC (serial dilution); assay type: cell-based; conditions: Micrococcus luteus
Description: as §1, §2, §3

Pasteurella haemolytica = test: In vitro MIC (serial dilution); assay type: cell-based; conditions: Mannheimia haemolytica
Description: as §1, §2, §3

Proteus vulgaris = test: In vitro MIC (serial dilution); assay type: cell-based
Description: as §1, §2, §3

Leptospira pomona = test: In vitro MIC (serial dilution); assay type: cell-based
Description: as §1, §2, §3

Trichophyton rubrum = test: In vitro MIC (serial dilution); assay type: cell-based
Description: as §1, §2, §3

Microsporum canis = test: In vitro MIC (serial dilution); assay type: cell-based
Description: as §1, §2, §3

Proteus morganii = test: In vitro MIC (serial dilution); assay type: cell-based; conditions: Morganella morganii
Description: as §1, §2, §3

Candida krusei = test: In vitro MIC (serial dilution); assay type: cell-based; conditions: Pichia kudriavzevii
Description: as §1, §2, §3

Epidermophyton floccasum = test: In vitro MIC (serial dilution); assay type: cell-based; conditions: only one value given
Description: as §1, §2, §3

Staphylococcus albus = test: In vitro MIC (serial dilution); assay type: cell-based
Description: as §1, §2, §3

Candida stellatoidea = test: In vitro MIC (serial dilution); assay type: cell-based; conditions: Candida albicans
Description: as §1, §2, §3

Haemophilus influenzae = test: In vitro MIC (serial dilution); assay type: cell-based
Description: as §1, §2, §3

Salmonella choleraesuis = test: In vitro MIC (serial dilution); assay type: cell-based; conditions: Salmonella enterica
Description: as §1, §2, §3

Enterobacter spp. = test: In vitro MIC (serial dilution); assay type: cell-based
Description: as §1, §2, §3

Candida guilliermondi = test: In vitro MIC (serial dilution); assay type: cell-based
Description: as §1, §2, §3

Candida tropicalis = test: In vitro MIC (serial dilution); assay type: cell-based
Description: as §1, §2, §3

Salmonella oxford = test: In vitro MIC (serial dilution); assay type: cell-based
Description: as §1, §2, §3

Pseudomonas aerguinosa = test: In vitro MIC (serial dilution); assay type: cell-based
Description: as §1, §2, §3

[3] = system: Klebsiella spp. (including K. pneumoniae); test: In vitro MIC (serial dilution); assay type: cell-based
Description: as §1, §2, §3

Escherichia coli = test: In vitro MIC (serial dilution); assay type: cell-based
Description: as §1, §2, §3

Aspergillus sp. = test: In vitro MIC (serial dilution); assay type: cell-based
Description: as §1, §2, §3

Candida pseudotropicalis = test: In vitro MIC (serial dilution); assay type: cell-based; conditions: Kluyveromyces marxianus
Description: as §1, §2, §3

Bacillus alvei = test: In vitro MIC (serial dilution); assay type: cell-based; conditions: Paenibacillus alvei
Description: as §1, §2, §3

Streptococcus pyogenes = test: In vitro MIC (serial dilution); assay type: cell-based
Description: as §1, §2, §3

Candida zeyfanoide = test: In vitro MIC (serial dilution); assay type: cell-based
Description: as §1, §2, §3

Candida parasilosis = test: In vitro MIC (serial dilution); assay type: cell-based
Description: as §1, §2, §3

Proteus mirabilis = test: In vitro MIC (serial dilution); assay type: cell-based
Description: as §1, §2, §3

Salmonella enteritidis = test: In vitro MIC (serial dilution); assay type: cell-based; conditions: Salmonella enterica
Description: as §1, §2, §3

Moracella bovis = test: In vitro MIC (serial dilution); assay type: cell-based
Description: as §1, §2, §3

Listeria monocytogenes = test: In vitro MIC (serial dilution); assay type: cell-based
Description: as §1, §2, §3

Candida albicans = test: In vitro MIC (serial dilution); assay type: cell-based
Description: as §1, §2, §3

Pasteurella multocida = test: In vitro MIC (serial dilution); assay type: cell-based
Description: as §1, §2, §3

Bacillus subtilis = test: In vitro MIC (serial dilution); assay type: cell-based
Description: as §1, §2, §3

Leptospira canicola = test: In vitro MIC (serial dilution); assay type: cell-based; conditions: Leptospira interrogans
Description: as §1, §2, §3

Serratia marcescens = test: In vitro MIC (serial dilution); assay type: cell-based
Description: as §1, §2, §3

SMILES: O=[N+]([O-])C(Br)=Cc1ccc(Br)o1 [Product G-1, 2-bromo-5-(2-bromo-2-nitro-vinyl)-furan]
- LD50 (Percutaneous LD50; mice OF1 females): 9.8%
- LD50 (Percutaneous LD50; mice OF1 males): 12.1%
- MIC50 ([1]; read-out: MIC50 values): 5.87 µg/mL (≈ 19.8 µM)
- MIC90 ([1]; read-out: MIC90 values): 17.7 µg/mL (≈ 59.5 µM)
- MIC50 (Streptococcus agalactiae): 1.99 µg/mL (≈ 6.7 µM)
- MIC90 (Streptococcus agalactiae): 4.55 µg/mL (≈ 15.3 µM)
- MIC50 (Proteus rettgeri): 2.78 µg/mL (≈ 9.36 µM)
- MIC90 (Proteus rettgeri): 9.92 µg/mL (≈ 33.4 µM)
- MIC50 (Microsporum gypseum): 12.5 µg/mL (≈ 42.1 µM)
- MIC90 (Microsporum gypseum): 20.8 µg/mL (≈ 70 µM)
- MIC90 [2]: 40.6 µg/mL (≈ 137 µM)
- MIC50 ([2]; read-out: MIC50 values): 17.7 µg/mL (≈ 59.5 µM)
- MIC50 (Sarcina lutea): 1.56 µg/mL (≈ 5.25 µM)
- MIC90 (Sarcina lutea): 4.43 µg/mL (≈ 14.9 µM)
- MIC50 (Pasteurella haemolytica): 3.72 µg/mL (≈ 12.5 µM)
- MIC90 (Pasteurella haemolytica): 5.63 µg/mL (≈ 19 µM)
- MIC50 (Proteus vulgaris): 5.95 µg/mL (≈ 20 µM)
- MIC90 (Proteus vulgaris): 19.8 µg/mL (≈ 66.5 µM)
- MIC50 (Leptospira pomona): 8.84 µg/mL (≈ 29.8 µM)
- MIC90 (Leptospira pomona): 11.7 µg/mL (≈ 39.3 µM)
- MIC50 (Trichophyton rubrum): 13.8 µg/mL (≈ 46.5 µM)
- MIC90 (Trichophyton rubrum): 24 µg/mL (≈ 80.9 µM)
- MIC50 (Microsporum canis): 7.91 µg/mL (≈ 26.6 µM)
- MIC90 (Microsporum canis): 40.6 µg/mL (≈ 137 µM)
- MIC50 (Proteus morganii): 3.13 µg/mL (≈ 10.5 µM)
- MIC90 (Proteus morganii): 10.2 µg/mL (≈ 34.2 µM)
- MIC50 (Candida krusei): 1.92 µg/mL (≈ 6.47 µM)
- MIC90 (Candida krusei): 2.84 µg/mL (≈ 9.57 µM)
- MIC50 (Epidermophyton floccasum): 12.5 µg/mL (≈ 42.1 µM)
- MIC50 (Staphylococcus albus): 10.2 µg/mL (≈ 34.5 µM)
- MIC90 (Staphylococcus albus): 19.8 µg/mL (≈ 66.8 µM)
- MIC50 (Candida stellatoidea): 1.92 µg/mL (≈ 6.47 µM)
- MIC90 (Candida stellatoidea): 3.56 µg/mL (≈ 12 µM)
- MIC50 (Haemophilus influenzae): 3.51 µg/mL (≈ 11.8 µM)
- MIC90 (Haemophilus influenzae): 39.2 µg/mL (≈ 132 µM)
- MIC50 (Salmonella choleraesuis): 5.57 µg/mL (≈ 18.8 µM)
- MIC90 (Salmonella choleraesuis): 10.5 µg/mL (≈ 35.4 µM)
- MIC50 (Enterobacter spp.): 5.3 µg/mL (≈ 17.9 µM)
- MIC90 (Enterobacter spp.): 17.2 µg/mL (≈ 57.8 µM)
- MIC50 (Candida guilliermondi): 1.92 µg/mL (≈ 6.47 µM)
- MIC90 (Candida guilliermondi): 2.84 µg/mL (≈ 9.57 µM)
- MIC50 (Candida tropicalis): 2.78 µg/mL (≈ 9.36 µM)
- MIC90 (Candida tropicalis): 5.29 µg/mL (≈ 17.8 µM)
- MIC50 (Salmonella oxford): 4.42 µg/mL (≈ 14.9 µM)
- MIC90 (Salmonella oxford): 5.83 µg/mL (≈ 19.6 µM)
- MIC50 (Pseudomonas aerguinosa): 7.84 µg/mL (≈ 26.4 µM)
- MIC90 (Pseudomonas aerguinosa): 15 µg/mL (≈ 50.4 µM)
- MIC50 [3]: 11 µg/mL (≈ 37 µM)
- MIC90 [3]: 21.3 µg/mL (≈ 71.9 µM)
- MIC50 (Escherichia coli): 7.53 µg/mL (≈ 25.4 µM)
- MIC90 (Escherichia coli): 16 µg/mL (≈ 53.8 µM)
- MIC50 (Aspergillus sp.): 16.2 µg/mL (≈ 54.6 µM)
- MIC90 (Aspergillus sp.): 48.3 µg/mL (≈ 163 µM)
- MIC50 (Candida pseudotropicalis): 1.92 µg/mL (≈ 6.47 µM)
- MIC90 (Candida pseudotropicalis): 3.56 µg/mL (≈ 12 µM)
- MIC50 (Bacillus alvei): 2.21 µg/mL (≈ 7.44 µM)
- MIC90 (Bacillus alvei): 5.08 µg/mL (≈ 17.1 µM)
- MIC50 (Streptococcus pyogenes): 1.86 µg/mL (≈ 6.26 µM)
- MIC90 (Streptococcus pyogenes): 4.42 µg/mL (≈ 14.9 µM)
- MIC50 (Candida zeyfanoide): 1.92 µg/mL (≈ 6.47 µM)
- MIC90 (Candida zeyfanoide): 3.56 µg/mL (≈ 12 µM)
- MIC50 (Candida parasilosis): 3.56 µg/mL (≈ 12 µM)
- MIC90 (Candida parasilosis): 6.93 µg/mL (≈ 23.3 µM)
- MIC50 (Proteus mirabilis): 9.36 µg/mL (≈ 31.5 µM)
- MIC90 (Proteus mirabilis): 24.1 µg/mL (≈ 81.3 µM)
- MIC50 (Salmonella enteritidis): 6.86 µg/mL (≈ 23.1 µM)
- MIC90 (Salmonella enteritidis): 11.5 µg/mL (≈ 38.7 µM)
- MIC50 (Moracella bovis): 2.63 µg/mL (≈ 8.86 µM)
- MIC90 (Moracella bovis): 5.08 µg/mL (≈ 17.1 µM)
- MIC50 (Listeria monocytogenes): 3.13 µg/mL (≈ 10.5 µM)
- MIC90 (Listeria monocytogenes): 5.44 µg/mL (≈ 18.3 µM)
- MIC50 (Candida albicans): 3.11 µg/mL (≈ 10.5 µM)
- MIC90 (Candida albicans): 7.95 µg/mL (≈ 26.8 µM)
- MIC50 (Pasteurella multocida): 3.59 µg/mL (≈ 12.1 µM)
- MIC90 (Pasteurella multocida): 9.47 µg/mL (≈ 31.9 µM)
- MIC50 (Bacillus subtilis): 2.27 µg/mL (≈ 7.65 µM)
- MIC90 (Bacillus subtilis): 5.08 µg/mL (≈ 17.1 µM)
- MIC50 (Leptospira canicola): 9.36 µg/mL (≈ 31.5 µM)
- MIC90 (Leptospira canicola): 15.4 µg/mL (≈ 51.8 µM)
- MIC50 (Serratia marcescens): 5.03 µg/mL (≈ 16.9 µM)
- MIC90 (Serratia marcescens): 10.9 µg/mL (≈ 36.9 µM)
